The source of these data is ChEMBL document CHEMBL1132322, “Paullones, a series of cyclin-dependent kinase inhibitors: synthesis, evaluation of CDK1/cyclin B inhibition, and in vitro antitumor activity” (J Med Chem, 1999).

Holding throughout (test): cells
The subject of assay [1] is Tumor Cell line. The class given is functional. The following applies: Homo sapiens.
Assay [2] concerns Tumor Cell line. The following applies: Homo sapiens, read-out: Log GI50 (converted).
In assay [3] the test system is HCT-116. The class given is functional. The following applies: Homo sapiens.
Description: The logarithmic molar concentration inhibiting 50% net cell growth was measured on HCT116 (M) colon cancer cell lines.
The subject of assay [4] is Tumor Cell line. The following applies: Homo sapiens, read-out: Log GI50 (converted). The source holds these as a separate data set.
The subject of assay [5] is HCT-116. The assay is classed as functional. The following applies: Homo sapiens. This is another data set of the same source.
Description: The logarithmic molar concentration inhibiting 50% net cell growth was measured on HCT116 (M)colon cancer cell lines (in experiment 2)
Assay [6] deals with HCT-116. The class given is functional. The following applies: Homo sapiens. The source holds these as a separate data set.
Description: The logarithmic molar concentration inhibiting 50% net cell growth was measured on HCT116 (M)colon cancer cell lines (in experiment 1)

Take `O=C1Cc2c([nH]c3ccc(Br)cc23)-c2ccccc2N1` [KENPAULLONE]: halving of growth in assay [1] (GI50) required 39.8 µM.

On to `CN1C(=O)Cc2c([nH]c3ccc(Br)cc23)-c2ccccc21`, for which the GI50 – broadly, the concentration at which growth is held to half of that of the control – in assay [2] was 31.6 µM.

In the case of `O=C1Cc2c([nH]c3ccc(Br)cc23)-c2ccccc2N1Cc1ccccc1` [PAULLONE], the GI50 in assay [3] was 20 µM; in assay [4], 100 µM; in assay [2], 31.6 µM.

Take `O=C1Cc2c([nH]c3cc(Br)ccc23)-c2ccccc2N1`: the results for the concentration for 50% growth inhibition (GI50) in assay [1] and in assay [3] were 15.8 µM and 3.16 µM, respectively.

Turning to `O=C1Cc2c([nH]c3ccc(Br)cc23)-c2cc(Br)ccc2N1`, the 50% growth inhibitory concentration (GI50) in assay [1] is 100 µM.

Take `CN1CCC(c2c(O)cc(O)c3c(=O)cc(-c4ccccc4Cl)oc23)[C@@H](O)C1` (stereo not given in full): the concentration for 50% growth inhibition (GI50) in assay [1] was 0.0631 µM; in assay [3] it was 0.0251 µM.

In the case of `ONC1=Nc2ccccc2-c2[nH]c3ccc(Br)cc3c2C1`, the GI50 in assay [1] was 10 µM; in assay [3], 6.31 µM.

On to `O=C1Cc2c([nH]c3ccc(Cl)cc23)-c2ccccc2N1`, for which the GI50 in assay [1] is 79.4 µM; in assay [3] it was 3.16 µM.

Turning to `CCc1cccc2c3c([nH]c12)-c1ccccc1NC(=O)C3`, the figures for the GI50 in assay [1] and in assay [3] were 63.1 µM and 79.4 µM, respectively.

Consider `O=C1Cc2c([nH]c3ccc([N+](=O)[O-])cc23)-c2ccccc2N1` [ALSTERPAULLONE], for which the GI50 in assay [4] is 0.316 µM; in assay [2], 0.398 µM.

Take `O=C1Cc2c([nH]c3c(Br)cccc23)-c2ccccc2N1`: the concentration for 50% growth inhibition (GI50) in assay [1] is 50.1 µM.

For the compound `O=C1Cc2c([nH]c3ccccc23)-c2cc(Br)ccc2N1`, the GI50 is 100 µM in assay [1] and > 100 µM in assay [3].

On to `CSC1=Nc2ccccc2-c2[nH]c3ccc(Br)cc3c2C1`, for which, in assay [5], it took 1.58 µM to inhibit growth by half (GI50).

Consider `COC(=O)CN1C(=O)Cc2c([nH]c3ccc(Br)cc23)-c2ccccc21`, for which the 50% growth inhibitory concentration (GI50) in assay [4] is 31.6 µM.

In the case of `O=C1Cc2c([nH]c3ccc(Br)cc23)-c2cc(O)c(O)cc2N1`, the GI50 in assay [1] is 100 µM.

`COc1cccc2c1NC(=O)Cc1c-2[nH]c2ccccc12`: the GI50 in assay [1] is 79.4 µM.

Take `CCN1C(=O)Cc2c([nH]c3ccc(Br)cc23)-c2ccccc21`: the GI50 in assay [6] was > 100 µM; in assay [4], 12.6 µM; in assay [2], 25.1 µM; in assay [5], 12.6 µM.

`O=C1Cc2c([nH]c3ccccc23)-c2ccccc2N1` [PAULLONE]: the concentration for 50% growth inhibition (GI50) was 31.6 µM in assay [1] and 15.8 µM in assay [3].

Take `O=C1Cc2c([nH]c3c(Cl)cccc23)-c2ccccc2N1`: the GI50 in assay [1] was 100 µM; in assay [3], > 100 µM.

With `N#Cc1ccc2[nH]c3c(c2c1)CC(=O)Nc1ccccc1-3` [PAULLONE 2], the GI50 in assay [1] was 79.4 µM; in assay [3], 20 µM.
